Results on 1 compound are retold here after publication doi:10.1101/2025.10.06.680794v3 (biorxiv, 2026).

For the experiment, the target named is p53 core domain (WT p53) (Homo sapiens, UniProt P04637). Description: intrinsic fluorescence quenching. The experiment is classed as binding.
Sequence of p53 core domain (WT p53) (P04637 94-312): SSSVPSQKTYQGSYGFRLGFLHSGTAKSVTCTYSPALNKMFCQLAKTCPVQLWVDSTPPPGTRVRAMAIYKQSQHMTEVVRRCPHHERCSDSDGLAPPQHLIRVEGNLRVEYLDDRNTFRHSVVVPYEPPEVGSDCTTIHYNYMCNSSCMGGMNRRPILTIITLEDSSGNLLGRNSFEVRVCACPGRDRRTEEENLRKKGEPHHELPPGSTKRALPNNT

In the case of `CC1(C)CC(NCC(=O)N2C/C(=C\c3ccc(C#N)cc3)C(=O)/C(=C/c3ccc(C#N)cc3)C2)C(C)(C)N1[O]` (stereo not shown) [AKT-100], the affinity, expressed as Kd, was 9.8 ± 0.1 µM.

One may read the Kd as the free concentration of one partner at which half of the binding sites on the other are occupied at equilibrium, for simple one-to-one binding. Read a low Kd as tighter binding.
